Laboratory results published in the supplement of paper PMC10307832.

What was measured:
Test in all cases: relative viability (nuclei count vs DMSO), 5 days (fraction); higher = more cells survive
Avagacestat = compound: NC(=O)[C@@H](CCC(F)(F)F)N(Cc1ccc(-c2ncon2)cc1F)S(=O)(=O)c1ccc(Cl)cc1 [Avagacestat]
Method in brief: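 Hoechst staining, done together with fixation and permeabilisation, marked nuclei for 4× imaging and MetaXpress counting. This followed 5 days without medium change after lung cancer cell lines, kept overnight at 37 °C in 1536-well plates, were pinned with five library-drug doses (not always all listed) spaced by √10 on vehicle-anchored plates. Viability is the ratio of treated-well to vehicle-well nuclei, expressed as a median across plates. Plates passed only at control CV below 25% with at least one doubling.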

Avagacestat + Tozasertib = compound: NC(=O)[C@@H](CCC(F)(F)F)N(Cc1ccc(-c2ncon2)cc1F)S(=O)(=O)c1ccc(Cl)cc1 [Avagacestat] + Cc1cc(Nc2cc(N3CCN(C)CC3)nc(Sc3ccc(NC(=O)C4CC4)cc3)n2)n[nH]1 [Tozasertib] (partner 0.1 µM)
Method in brief: (§1)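 Relative viability divides the nuclei count in treated wells by that in vehicle wells. Lung cancer cell lines were seeded in 1536-well plates, dosed by pin tool the next day, and fixed and stained after 5 days in one step with final 0.05% Triton X-100, 1% formaldehyde and 1 ug/ml Hoechst. Dosing was a single drug or a fixed anchor-drug dose plus five library-drug doses (not always all listed) in √10 steps, and values are medians of duplicate plates imaged at 4×.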

Avagacestat + Trametinib = compound: NC(=O)[C@@H](CCC(F)(F)F)N(Cc1ccc(-c2ncon2)cc1F)S(=O)(=O)c1ccc(Cl)cc1 [Avagacestat] + CC(=O)Nc1cccc(-n2c(=O)n(C3CC3)c(=O)c3c(Nc4ccc(I)cc4F)n(C)c(=O)c(C)c32)c1 [Trametinib] (partner 0.02 µM)
Method in brief: as §1

Avagacestat + AZD7762 = compound: NC(=O)[C@@H](CCC(F)(F)F)N(Cc1ccc(-c2ncon2)cc1F)S(=O)(=O)c1ccc(Cl)cc1 [Avagacestat] + NC(=O)Nc1cc(-c2cccc(F)c2)sc1C(=O)N[C@H]1CCCNC1 [AZD7762] (partner 0.2 µM)
Method in brief: as §1

Row | Cell Line | relative viability (Avagacestat; 0.08 µM) | relative viability (Avagacestat; 0.253 µM) | relative viability (Avagacestat; 0.8 µM) | relative viability (Avagacestat; 2.53 µM) | relative viability (Avagacestat; 8 µM) | relative viability (Avagacestat + Tozasertib; first compound 0.08 µM) | relative viability (Avagacestat + Tozasertib; first compound 0.253 µM) | relative viability (Avagacestat + Tozasertib; first compound 0.8 µM) | relative viability (Avagacestat + Tozasertib; first compound 2.53 µM) | relative viability (Avagacestat + Tozasertib; first compound 8 µM) | relative viability (Avagacestat + Trametinib; first compound 0.08 µM) | relative viability (Avagacestat + Trametinib; first compound 0.253 µM) | relative viability (Avagacestat + Trametinib; first compound 0.8 µM) | relative viability (Avagacestat + Trametinib; first compound 2.53 µM) | relative viability (Avagacestat + Trametinib; first compound 8 µM) | relative viability (Avagacestat + AZD7762; first compound 0.08 µM) | relative viability (Avagacestat + AZD7762; first compound 0.253 µM) | relative viability (Avagacestat + AZD7762; first compound 0.8 µM) | relative viability (Avagacestat + AZD7762; first compound 2.53 µM) | relative viability (Avagacestat + AZD7762; first compound 8 µM)
1 | H3255 | 1.04 | 1.06 | 1.08 | 1.01 | 0.988 | 0.529 | 0.55 | 0.825 | 0.556 | 0.693 | 0.673 | 0.644 | 0.777 | 0.569 | 0.589 | 1.02 | 0.988 | 1.22 | 0.928 | 0.775
2 | EPLC-272H | 0.989 | 0.922 | 1.07 | 1 | 0.911 | 0.186 | 0.48 | 0.152 | 0.249 | 0.203 | 0.309 | 0.295 | 0.316 | 0.333 | 0.248 | 0.268 | 0.233 | 0.244 | 0.169 | 0.156
3 | SK-LU-1 | 1.21 | 1.03 | 1.02 | 0.83 | 0.908 | 0.317 | 0.318 | 0.329 | 0.269 | 0.31 | 0.524 | 0.457 | 0.516 | 0.467 | 0.382 |  |  |  |  | 
4 | NCI-H1793 | 1.04 | 1.11 | 1.06 | 0.858 | 0.846 | 0.307 | 0.329 | 0.655 | 0.239 | 0.3 | 0.52 | 0.536 | 0.459 | 0.519 | 0.479 | 0.619 | 0.474 | 0.373 | 0.346 | 0.228
5 | EKVX | 1.17 | 1.07 | 1.19 | 0.886 | 0.871 | 0.401 | 0.373 | 0.382 | 0.34 | 0.287 | 0.468 | 0.39 | 0.348 | 0.303 | 0.298 | 0.699 | 0.779 | 0.818 | 0.633 | 0.624
6 | ChaGo-K-1 | 1.13 | 0.948 | 0.969 | 0.99 | 0.889 | 0.198 | 0.238 | 0.22 | 0.212 | 0.226 | 0.95 | 0.933 | 0.897 | 0.817 | 0.797 | 0.896 | 0.855 | 0.818 | 0.794 | 0.733
7 | NCI-H2347 | 1.1 | 1.07 | 1.13 | 1.03 | 0.97 | 0.452 | 0.52 | 0.526 | 0.519 | 0.503 | 0.283 | 0.324 | 0.388 | 0.327 | 0.283 | 0.707 | 0.783 | 0.743 | 0.696 | 0.587
8 | EMC-BAC-2 | 1.22 | 1.08 | 1.15 | 1.08 | 1.1 | 0.278 | 0.299 | 0.31 | 0.255 | 0.322 | 0.986 | 1.2 | 1.05 | 0.955 | 1.02 | 1.23 | 1.33 | 1.28 | 0.976 | 1.21
9 | LU99A | 0.977 | 0.997 | 1.12 | 0.907 | 0.986 | 0.246 | 0.238 | 0.244 | 0.235 | 0.273 | 0.515 | 0.485 | 0.555 | 0.485 | 0.534 | 0.422 | 0.407 | 0.314 | 0.341 | 0.329
10 | LXF-289 | 0.995 | 1.05 | 1.05 | 0.994 | 0.975 | 0.19 | 0.119 | 0.211 | 0.131 | 0.212 | 0.725 | 0.656 | 0.767 | 0.659 | 0.636 | 1.13 | 1.08 | 1.09 | 1.16 | 0.971
11 | NCI-H1395 | 0.909 | 0.903 | 0.97 | 0.875 | 0.861 | 0.826 | 0.758 | 0.752 | 0.64 | 0.715 | 1.02 | 1.05 | 0.926 | 0.803 | 0.949 | 0.407 | 0.365 | 0.369 | 0.412 | 0.333
12 | NCI-H596 | 1.06 | 0.986 | 0.985 | 1.04 | 0.936 | 0.979 | 0.784 | 0.774 | 0.754 | 0.827 | 0.741 | 0.783 | 0.794 | 0.817 | 0.7 | 1.21 | 1.14 | 1.17 | 0.971 | 1.05
13 | 201T | 0.995 | 1 | 1.1 | 0.927 | 0.965 | 0.967 | 1.06 | 0.922 | 0.843 | 0.9 | 0.732 | 0.749 | 0.761 | 0.691 | 0.625 | 0.65 | 0.712 | 0.607 | 0.56 | 0.587
14 | NCI-H1944 | 1.06 | 1.15 | 0.924 | 0.865 | 0.922 | 0.256 | 0.314 | 0.232 | 0.222 | 0.257 | 0.426 | 0.436 | 0.373 | 0.394 | 0.382 | 0.455 | 0.603 | 0.571 | 0.454 | 0.719
15 | NCI-H3122 | 1.07 | 1.08 | 1.05 | 0.995 | 0.927 | 0.446 | 0.517 | 0.419 |  | 0.384 | 0.298 | 0.233 | 0.197 | 0.23 | 0.219 | 1.09 | 1.11 | 0.997 | 0.908 | 0.964
16 | NCI-H1734 | 1.04 | 1.19 | 1 | 1.04 | 0.994 | 0.235 | 0.301 | 0.264 | 0.236 | 0.24 | 0.776 | 0.796 | 0.682 | 0.71 | 0.633 | 0.612 | 0.65 | 0.641 | 0.5 | 0.592
